Results taken from ChEMBL document CHEMBL1135215, “Synthesis and cytotoxicity of 3,4-diaryl-2(5H)-furanones” (2002).

Assays:
[1] = tested on: A549; assay: Cytotoxic activity against human lung cancer A549 cell line was determined; type: functional; settings: read-out: ED50 (the source's name)
[2] = tested on: SK-MEL-2; assay: Cytotoxic activity against human melanoma SK-MEL-2 was determined; type: functional; settings: read-out: ED50 (the source's name)
[3] = tested on: MCF7; assay: Cytotoxic activity against human breast cancer MCF-7 cell line was determined; type: functional; settings: read-out: ED50 (the source's name)
[4] = tested on: Cancer cell lines; assay: Average cytotoxic activity (AC) in three cancer cell lines A549, SK-MEL-2 and MCF-7 was calculated; type: functional, Homo sapiens; parameters: unit not given beside the values

Row | Structure (SMILES) | EC50 [1] [nM] | EC50 [2] [nM] | EC50 [3] [nM] | AC [4]
1 | COc1cc(-n2c(-c3ccc4c(c3)OCO4)coc2=O)cc(OC)c1OC | 64.5 | 64.5 | 64.5 | 64.5
2 | COc1ccc(C2=C(c3cc(OC)c(OC)c(OC)c3)C(=O)OC2)cc1O | 16.3 | 10.2 | 11.4 | 12.6
3 | COc1cc(C2=C(c3ccc(N)cc3)COC2=O)cc(OC)c1OC | 54.7 | 49.3 | 33 | 45.7
4 | COc1cc(C2=C(c3ccc4c(c3)OCO4)COC2=O)cc(OC)c1OC | 100 | 70.8 | 80.4 | 83.8
5 | COc1ccccc1C1=C(c2cc(OC)c(OC)c(OC)c2)C(=O)OC1 | > 5000 | > 5000 | > 5000 | >5000
6 | COc1cc([C@@H]2c3cc4c(cc3C[C@H]3COC(=O)[C@@H]32)OCO4)cc(OC)c1OC [DESOXYPODOPHYLLOTOXIN] | 15.5 | 8.4 | 11.7 | 11.9
